Experimental data as given in the NIST ThermoML archive (doi:10.1021/je200213h).

Legend:
[1] = 101.33 kPa, Liquid, Capillary tube (Ostwald / Ubbelohde) method
[2] = xn = mol fraction of the nth substance listed; conditions: 101 kPa, Liquid, Capillary tube (Ostwald / Ubbelohde) method

CC(C)(C)Cl [2-chloro-2-methylpropane]
[1]
Conditions | kinematic viscosity [m2/s]
283.15 K | 6.992e-07
298.15 K | 5.696e-07
313.15 K | 4.77e-07

CCCCCC [hexane]
[1]
Conditions | kinematic viscosity [m2/s]
283.15 K | 5.125e-07
298.15 K | 4.493e-07
313.15 K | 4.039e-07

CCCCCl [1-chlorobutane]
[1]
Conditions | kinematic viscosity [m2/s]
283.15 K | 5.564e-07
298.15 K | 4.785e-07
313.15 K | 4.216e-07

CCCCCCC [heptane]
[1]
Conditions | kinematic viscosity [m2/s]
283.15 K | 6.697e-07
298.15 K | 5.754e-07
313.15 K | 4.986e-07

CCC(C)(C)C [2,2-dimethylbutane]
[1]
Conditions | kinematic viscosity [m2/s]
283.15 K | 6.234e-07
298.15 K | 5.206e-07
313.15 K | 4.579e-07

CC(C)CCl [1-chloro-2-methylpropane]
[1]
Conditions | kinematic viscosity [m2/s]
283.15 K | 5.8e-07
298.15 K | 4.929e-07
313.15 K | 4.363e-07

CCC(C)CC [3-methylpentane]
[1]
Conditions | kinematic viscosity [m2/s]
283.15 K | 4.928e-07
298.15 K | 4.366e-07
313.15 K | 3.881e-07

CCC(C)Cl (stereo not drawn) [2-chlorobutane]
[1]
Conditions | kinematic viscosity [m2/s]
283.15 K | 5.237e-07
298.15 K | 4.603e-07
313.15 K | 4.049e-07

CCC(C)(C)C [2,2-dimethylbutane] + CC(C)(C)Cl
kinematic viscosity [m2/s], [2]
Conditions | 283.15 K | 298.15 K | 313.15 K
x1 = 0.0499 | 6.937e-07 | 5.657e-07 | 4.748e-07
x1 = 0.1017 | 6.864e-07 | 5.592e-07 | 4.715e-07
x1 = 0.1983 | 6.729e-07 | 5.493e-07 | 4.664e-07
x1 = 0.3004 | 6.6e-07 | 5.405e-07 | 4.607e-07
x1 = 0.399 | 6.491e-07 | 5.333e-07 | 4.568e-07
x1 = 0.4989 | 6.399e-07 | 5.275e-07 | 4.538e-07
x1 = 0.6017 | 6.32e-07 | 5.225e-07 | 4.522e-07
x1 = 0.7034 | 6.27e-07 | 5.2e-07 | 4.518e-07
x1 = 0.8 | 6.228e-07 | 5.18e-07 | 4.519e-07
x1 = 0.8967 | 6.221e-07 | 5.184e-07 | 4.541e-07
x1 = 0.9504 | 6.224e-07 | 5.19e-07 | 4.556e-07

CCC(C)Cl (stereo not drawn) [2-chlorobutane] + CCCCCCC
kinematic viscosity [m2/s], [2]
Conditions | 283.15 K | 298.15 K | 313.15 K
x1 = 0.0506 | 5.287e-07 | 4.649e-07 | 4.086e-07
x1 = 0.0989 | 5.334e-07 | 4.686e-07 | 4.121e-07
x1 = 0.2012 | 5.44e-07 | 4.78e-07 | 4.202e-07
x1 = 0.3016 | 5.558e-07 | 4.876e-07 | 4.283e-07
x1 = 0.3997 | 5.677e-07 | 4.978e-07 | 4.37e-07
x1 = 0.4984 | 5.812e-07 | 5.087e-07 | 4.461e-07
x1 = 0.5994 | 5.966e-07 | 5.206e-07 | 4.558e-07
x1 = 0.6994 | 6.128e-07 | 5.331e-07 | 4.652e-07
x1 = 0.7996 | 6.304e-07 | 5.467e-07 | 4.757e-07
x1 = 0.9006 | 6.496e-07 | 5.609e-07 | 4.866e-07
x1 = 0.9503 | 6.6e-07 | 5.684e-07 | 4.927e-07

CC(C)CCl [1-chloro-2-methylpropane] + CCC(C)CC
kinematic viscosity [m2/s], [2]
Conditions | 283.15 K | 298.15 K | 313.15 K
x2 = 0.0522 | 5.703e-07 | 4.87e-07 | 4.322e-07
x2 = 0.1013 | 5.618e-07 | 4.823e-07 | 4.275e-07
x2 = 0.2024 | 5.464e-07 | 4.717e-07 | 4.187e-07
x2 = 0.3032 | 5.324e-07 | 4.631e-07 | 4.113e-07
x2 = 0.4028 | 5.212e-07 | 4.55e-07 | 4.048e-07
x2 = 0.5056 | 5.115e-07 | 4.484e-07 | 3.994e-07
x2 = 0.604 | 5.043e-07 | 4.43e-07 | 3.951e-07
x2 = 0.7018 | 4.988e-07 | 4.396e-07 | 3.918e-07
x2 = 0.8002 | 4.949e-07 | 4.37e-07 | 3.896e-07
x2 = 0.898 | 4.93e-07 | 4.357e-07 | 3.881e-07
x2 = 0.9486 | 4.927e-07 | 4.355e-07 | 3.879e-07
